# Results reported in patent US20110045076A1, “LINEAR ORDER RELEASE POLYMER” (priority 2008, published 2011).
# Tests used:
# [1] = In vitro release of dapivirine from PU rods into liposome dispersions; type: physicochemical; conditions: 5 mg/g PU rods
# Description: It is believed that vaginally delivered lipophilic NNRTI's partition into the lipid bilayer of vaginal epithelial cells.^14,21 Therefore, additional release studies were performed using 100 nm liposome dispersions in pH 4.2 and pH 7.6 buffers as biorelevant sink conditions for 1 week. These pH conditions cover the pH range observed vaginally. Liposome dispersions were synthesized by dissolving egg PC in CHCl3 followed by solvent removal under vacuum. The dried egg PC cake was dispersed in either pH 4.2 (25 mM acetate buffer containing 0.02% sodium azide and osmolarity adjusted to 310 mOsm/kg with NaCl) or pH 7.6 (25 mM phosphate buffer containing 0.02% sodium azide and osmolarity adjusted to 310 mOsm/kg with NaCl) followed by extrusion through a 100 nm membrane (LiposoFast™, Avestin, Ottawa, Canada). The concentration of liposome was 10 mg/mL. Prior to conducting the release study, liposome dispersions were characterized for particle size and zeta potential in a Zetasizer (nano ZS90, Malvern Instruments, Malvern Worcestershire, UK). A third sink condition for comparison was 25:75 v/v i-prOH:water. Approximately 0.5 mm length segments of dapivirine loaded (5 mg/g) PU rods were incubated with 0.5 mL of sink solution in 37° C. water bath shaking at 64±2 rpm. Controls used were dapivirine loaded PU rods suspended with pH 4.2 and pH 7.6 buffers without liposomes and blank PU (no dapivirine) segments in liposome dispersions in pH 4.2 and pH 7.6 buffers. Sinks were replaced and quantified for dapivirine content at frequent time points. HPLC quantification of release in sink samples of liposome dispersions was performed after 1:1 dilution with i-prOH to disrupt the dispersion.
# [2] = Solubility study of dapivirine; type: physicochemical; conditions: for solubility: 37 °C, aqueous with cosolvent or surfactant or cyclodextrin, thermodynamic from solid; for Time to reach saturation: 37° C.
# Description: HPLC quantification of dapivirine was conducted as follows. The HPLC system (Agilent 1050) consisted of a solvent module, quaternary pump module and a variable wavelength UV detector. For analysis of release and solubility study samples, an alkyl amide column (Supelcosil™ ABZ+Plus 3 μm, 3.3 cm×4.6 mm ID, Supelco, Bellefonte, Pa.) was used with a gradient of 50:50 acetonitrile and water to 100% acetonitrile (both containing 0.1% v/v trifluoroacetic acid, TFA) in 4 minutes at a flow rate of 1 mL/min. The retention time of dapivirine was 1.1 min. A linear calibration curve of dapivirine was obtained in the range of 1-100 ng/injection (r^2>0.99) at the detection wavelength of 286 nm. The quantification limit of HPLC for dapivirine was 0.65 ng/injection (corresponds to 2 μl of a 1 μM solution) with a signal to noise ratio greater than 10. A longer method was developed for the stability study; a C-18 column (Hypersil BDS-C18, 10 cm×4.0 mm ID, […], Thermo Electron Corporation, Waltham, Mass.) was used with acetonitrile (A) and water (B) both containing 0.1% v/v TFA as eluent at a flow rate of 1 mL/min. A gradient of 30:70 A:B to 70:30 A:B was applied in 7 minutes with retention time of dapivirine at 5.7 minutes. The HPLC method was modified for LC/MS analysis: the flow rate was reduced to 0.5 mL/min; a gradient of 30:70 A:B to 70:30 A:B in 14 minutes; the TFA concentration in the eluents was 0.05% v/v and the retention time for dapivirine was 10.5 minutes.
# Solubility studies of dapivirine were conducted to determine the appropriate sink conditions for the in vitro release studies. Dapivirine is a hydrophobic molecule; therefore a co-solvent system that can provide sink conditions (solubility greater than 3 times the maximum concentration achieved in the release medium) during dapivirine release study was needed. Since a co-solvent system consisting of 50:50 v/v i-prOH:water has been utilized previously for long-term release studies of dapivirine from silicone rings^11,18, the solubility of dapivirine was determined in 50:50 and 25:75 v/v i-prOH:water solutions. Additionally, solubility of dapivirine in liposome dispersions was evaluated in an attempt to utilize them as biorelevant sink conditions.^14,21 The liposome dispersions of 10 mg/mL in 25 mM pH 4.2 acetate buffer (osmolarity adjusted to 310 mOsm/kg with NaCl) and 25 mM pH 7.6 phosphate buffer (osmolarity adjusted to 310 mOsm/kg with NaCl) were utilized. (See in vitro release studies in Example 4 for preparation of liposome dispersions.) Dapivirine (10 mg) was dispersed in test solutions (2 mL) and shaken at 37° C. at 200 rpm. Aliquots of 200 μL were withdrawn at 24 h, 48 h and 72 h. At each time point, the aliquots were centrifuged immediately for 2 minutes at 16000 g, 100 μL of the supernatant was diluted 1:10 using 100% isopropanol and quantified by HPLC. The solubility was determined by a calibration curve generated from known concentrations of dapivirine solutions in i-prOH.
compound,measurement,setting,value
"Cc1cc(C)c(Nc2ccnc(Nc3ccc(C#N)cc3)n2)c(C)c1 [dapivirine, 4-[[4-[(2,4,6-trimethylphenyl)amino]pyrimidin-2-yl]amino]benzonitrile]",cumulative release over time,"[1]; liposome dispersions, one week",linear relationship with time
same,dapivirine release in buffer controls,[1]; pH 4.2 and pH 7.6 buffers without liposomes,below the detection limit
same,release kinetics relative to 25:75 i-prOH:water sink (slopes of linear fits),[1]; pH 4.2 liposome dispersion,22 times
same,release kinetics relative to 25:75 i-prOH:water sink (slopes of linear fits),[1]; pH 7.6 liposome dispersion,1.5 times
same,solubility,"[2]; 10 mg/mL liposome dispersion in pH 4.2 acetate buffer, 10 mg/mL pH 4.2 liposome dispersion",844 µM
same,solubility,"[2]; 10 mg/mL liposome dispersion in pH 7.6 phosphate buffer, 10 mg/mL pH 7.6 liposome dispersion",165 µM
same,Time to reach saturation,[2]; 10 mg/mL pH 4.2 liposome dispersion,48 h
same,Time to reach saturation,[2]; 10 mg/mL pH 7.6 liposome dispersion,48 h
same,Time to reach saturation,[2]; 25:75 i-prOH:water,48 h
same,dapivirine solubility,[2]; 25:75 v/v i-prOH:water solution,93 μM/L
same,solubility,"[2]; 25:75 v/v i-prOH:water, 25:75 i-prOH:water",93 µM
same,Time to reach saturation,[2]; 50:50 i-prOH:water,24 h
same,solubility,"[2]; 50:50 v/v i-prOH:water, 50:50 i-prOH:water",3310 µM
